Values joined by “and” are separate entries in the source; they are usually repeats but may differ in a detail not shown here. Identical values can stand only once.
Experiments:
[1] = Study VX-222-102 Part A: PK and safety of VX-222 in HCV infected subjects, 3 days; format: in vivo, human
Experimental: (§1) In Part A of Study 102 subjects were randomized to VX-222 or placebo in a 6:2 (VX-222: placebo) allocation ratio to either Cohort 1, Cohort 2, Cohort 3, or Cohort 4. Subjects enrolled in Cohort 1, Cohort 2, and Cohort 3 were administered 250 mg, 500 mf, or 750 mg VX-222 or placebo twice daily (b.i.d.) for 3 days, respectively. Subjects enrolled in Cohort 4 were administered 1,500 mg VX-222 or placebo once daily (qd) for 3 days. Standard of care treatment, Peg-IFN-alpha-2a and RBV was offered to the subjects at the end of dosing in Part A for up to 48 weeks, if judged appropriate by the physician.
Subjects with genotype 1 chronic hepatitis C infection were exposed to multiple doses of VX-222 or placebo at 250 mg (Cohort 1), 500 mg (Cohort 2), or 750 mg (Cohort 3) b.i.d. for 3 days. […] The majority of the reported adverse events were mild in severity and there were no untoward adverse incidences or trends.
(§2) Study Design a& Population Multicenter, randomized, double-blinded, placebo-controlled, dose-ranging study HCV genotype 1-infected patients With no evidence of cirrhosis ALT values<5×ULM Plasma HCV RNA of ≧5 log10 IU/mL at screening 4-arm comparative study (6:2 randomization VX-222: placebo) Enrollment in this dosing—ranging study was sequential 250 mg BID for 3 days 500 mg BID for 3 days 750 mg BID for 3 days 1500 mg QD for 3 days.

genotype 1 HCV = test: Study VX-222-102 Part A: HCV RNA analyses (viral load reduction); format: in vivo, Hepatitis C virus
Experimental: as §1
Additional results of Study VX-222-102 are described in FIGS. 2-8: Thirty-two treatment-naïve patients with chronic genotype 1 HCV infection were enrolled in the trial, including six patients in each dose group who received 250 mg of VX-222 BID, 500 mg of VX-222 BID, 750 mg of VX-222 BID, and 1,500 mg of VX-222 QD. Two patients received placebo in each of the four dosing groups, for a total of eight patients who received placebo. Part A of the trial was conducted at 10 centers in the United States, Canada and Argentina. Of the patients enrolled in the trial, 24 patients had genotype 1a HCV infection and eight patients had genotype 1b HCV infection. Six of the patients enrolled in the trial were African American, 25 were Caucasian.
as §2

[2] = PK parameters of VX-222 in Study 101 Part C and Study 102 Part A; format: in vivo, human; settings: 250 to 750 mg b.i.d.
Experimental: In Part C of Study 101, VX-222 was administered as multiple doses of 750 mg b.i.d. to treatment-naïve subjects with chronic hepatitis C for 3 days. In addition, in Part A of Study 102, VX-222 was administered as multiple doses ranging from 250 mg to 750 mg BID and 1500 mg once a day to treatment-naïve subjects with chronic hepatitis C for 3 days. The PK parameters of VX-222 assessed in Study 101 (final data) and Study 102 (preliminary data) are outlined below: […]

[3] = test system: Huh-7, ET replicon cells (HCV replicon I389luc-ubi-neo/NS3-3'/5.1); test: Drug combination luciferase assay (4-day, MacSynergy analysis); format: cell-based, Hepatitis C virus; settings: combination with VX-950, 4 days
Text: Replicon cell lines Huh-7, ET cells derived from the Huh-7 hepatocarcinoma cell line are obtained from Dr. Ralf Bartenschlager (Bartenschlager, R. Innovation: Hepatitis C virus replicons: potential role for drug development. Nat. Rev. Drug Discov. 2002, 1, 911-916. Krieger, N.; Lohmann, V.; Bartenschlager, R. Enhancement of hepatitis C virus RNA replication by cell culture-adaptive mutations. J. Virol. 2001, 75, 4614-4624. Lohmann, V.; Korner, F.; Koch, J.-O.; Herian, U.; Theilmann, L.; Bartenschlager, R. Replication of subgenomic hepatitis C virus RNAs in a hepatoma cell line. Science. 1999, 285, 110-113.) (Reblikon GmbH, Gau-Odernheim, Germany). […]
Huh-7, ET replicon cells are seeded in white opaque 96-well cell culture microtiter plates at sub-confluent density (3×10^3 cells per well) in a volume of 100 μL media. […] Plates are read for Luciferase counts using a luminometer (Wallac MicroBeta Trilux, Perkin Elmer™, MA, USA). […]

genotype 1 chronic HCV = test: ZENITH Phase 2a study: VX-222 in combination with telaprevir (DUAL, QUAD)
[4] = Study VX-222-002: combination treatment with VX-222 and VX-950 in healthy subjects (PK, safety); settings: Treatment Period 3: VX-222 and VX-950 simultaneously for 10 days, preliminary
[5] = 500 mg b.i.d., Day 3, HCV infected subjects

SMILES: CC1CCC(C(=O)N(c2cc(C#CC(C)(C)C)sc2C(=O)O)C2CCC(O)CC2)CC1 (stereo not drawn) [VX-222, 5-(3,3-Dimethylbut-1-ynyl)-3-[(trans-4-hydroxycyclohexyl)-(4-trans methylcyclohexanecarbonyl)amino]thiophene-2-carboxylic acid]
- AUC0-12 hr Geometric Mean [1, 5]: 29848 ng·h/mL
- tmax Median [1, 5]: 2.5 h
- most frequently reported adverse events (at least two patients per dose group) ([1]; blinded, pooled data for placebo or VX-222): diarrhea, headache, nausea, asthenia and fever
- tolerability ([1]; blinded, pooled data for placebo or VX-222, four dose groups): well-tolerated across all four dose groups
- Viral Load Reduction at Day 4, Mean (genotype 1 HCV; 250 mg b.i.d. for 3 days): −3.1
- Viral Load Reduction at Day 4, Mean (genotype 1 HCV; 500 mg b.i.d. for 3 days): −3.4
- Viral Load Reduction at Day 4, Mean (genotype 1 HCV; 750 mg b.i.d. for 3 days): −3.2
- dose proportionality of exposures [2]: increased in an approximately dose proportional manner
- synergy class with VX-950 (MacSynergy) [3]: Moderated synergy (50 uM^2%-100 uM^2%: Moderated synergy)
- volume of synergy with VX-950 (MacSynergy) ([3]; listed as 1): 90 uM^2% and 86 uM^2%
- viral breakthrough rate (genotype 1 chronic HCV; DUAL treatment arms (VX-222 with telaprevir alone), 2-sided 90% confidence interval): > 25%
- patients eligible (undetectable HCV RNA at Weeks 2 and 8) to stop treatment after 12 weeks (genotype 1 chronic HCV; higher VX-222 dose in the QUAD regimen (with telaprevir, peginterferon/ribavirin)): 50%
- severe or SAEs [4]: no reported severe or SAEs
